This passage reports IC50 results from US9975907B2, “Pyrimidinones as PI3K inhibitors” (Incyte Corporation, priority 2009, dated 2018).

Counter-ions that a name gives are not always drawn.

As a reminder, the IC50 is the concentration needed to halve the response being measured.

Sequence of PI3Kδ (p110δ/p85α) (O00329 whole entry, species assumed): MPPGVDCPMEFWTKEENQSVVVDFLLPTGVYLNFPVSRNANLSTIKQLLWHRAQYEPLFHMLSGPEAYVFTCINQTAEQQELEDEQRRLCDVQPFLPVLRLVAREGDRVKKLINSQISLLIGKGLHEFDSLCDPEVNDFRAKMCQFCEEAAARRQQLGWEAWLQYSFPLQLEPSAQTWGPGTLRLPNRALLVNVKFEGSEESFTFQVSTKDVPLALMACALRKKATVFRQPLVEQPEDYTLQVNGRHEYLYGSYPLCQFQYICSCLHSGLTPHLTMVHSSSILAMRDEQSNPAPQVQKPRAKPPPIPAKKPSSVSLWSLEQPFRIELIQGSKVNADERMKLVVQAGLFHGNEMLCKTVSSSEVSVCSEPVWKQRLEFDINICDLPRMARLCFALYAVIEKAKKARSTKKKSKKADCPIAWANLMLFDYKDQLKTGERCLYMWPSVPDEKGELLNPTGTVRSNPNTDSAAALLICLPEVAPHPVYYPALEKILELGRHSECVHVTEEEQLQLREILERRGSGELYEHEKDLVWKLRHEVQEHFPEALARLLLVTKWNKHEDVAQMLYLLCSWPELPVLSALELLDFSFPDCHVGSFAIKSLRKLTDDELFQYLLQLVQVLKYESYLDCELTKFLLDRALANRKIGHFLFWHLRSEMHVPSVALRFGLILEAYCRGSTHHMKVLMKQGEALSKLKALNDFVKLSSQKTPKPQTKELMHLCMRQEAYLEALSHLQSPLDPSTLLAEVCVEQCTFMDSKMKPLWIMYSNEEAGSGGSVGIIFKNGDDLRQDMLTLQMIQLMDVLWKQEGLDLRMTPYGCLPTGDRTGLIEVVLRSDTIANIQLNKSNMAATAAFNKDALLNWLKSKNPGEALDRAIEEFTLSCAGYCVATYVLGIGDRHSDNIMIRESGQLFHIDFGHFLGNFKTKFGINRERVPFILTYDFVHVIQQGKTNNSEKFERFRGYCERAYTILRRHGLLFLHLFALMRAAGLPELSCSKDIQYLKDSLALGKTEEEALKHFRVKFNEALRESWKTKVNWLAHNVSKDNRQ
Sequence of PI3Kδ (p110δ/p85α) (P27986 whole entry partner, species assumed): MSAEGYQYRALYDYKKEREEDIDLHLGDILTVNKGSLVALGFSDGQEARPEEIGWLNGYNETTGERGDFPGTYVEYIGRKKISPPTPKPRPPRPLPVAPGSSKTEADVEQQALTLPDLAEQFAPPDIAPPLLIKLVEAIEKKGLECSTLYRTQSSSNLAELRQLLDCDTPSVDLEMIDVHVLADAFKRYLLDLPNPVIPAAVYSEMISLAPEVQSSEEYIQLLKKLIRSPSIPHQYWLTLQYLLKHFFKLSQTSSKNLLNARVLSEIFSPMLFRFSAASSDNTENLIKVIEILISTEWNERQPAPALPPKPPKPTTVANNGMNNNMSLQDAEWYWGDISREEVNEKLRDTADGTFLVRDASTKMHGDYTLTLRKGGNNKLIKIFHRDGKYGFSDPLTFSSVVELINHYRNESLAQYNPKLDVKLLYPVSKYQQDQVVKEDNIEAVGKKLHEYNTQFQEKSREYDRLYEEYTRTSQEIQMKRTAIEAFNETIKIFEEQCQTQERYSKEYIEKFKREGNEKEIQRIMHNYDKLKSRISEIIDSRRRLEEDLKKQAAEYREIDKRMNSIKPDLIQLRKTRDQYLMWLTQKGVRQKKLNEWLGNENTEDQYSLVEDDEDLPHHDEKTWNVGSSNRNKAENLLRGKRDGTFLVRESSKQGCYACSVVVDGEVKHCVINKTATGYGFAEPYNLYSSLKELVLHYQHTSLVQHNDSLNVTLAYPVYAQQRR

This experiment concerns the target PI3Kδ (p110δ/p85α) (Homo sapiens (Human), UniProt O00329). Description: PI3Kδ Scintillation Proximity Assay (Assay A3). In kind it is biochemical. As to conditions: column b, Assay A3 (SPA), 20 μM ATP. The source says:
[γ-^33P]ATP (10 mCi/mL) was purchased from Perkin-Elmer (Waltham, Mass.). Lipid kinase substrate, D-myo-Phosphatidylinositol 4,5-bisphosphate (PtdIns(4,5)P2)D (+)-sn-1,2-di-O-octanoylglyceryl, 3-O-phospho linked (PIP2), CAS 204858-53-7, was purchased from Echelon Biosciences (Salt Lake City, Utah). PI3Kδ (p110δ/p85α) was purchased from Millipore (Bedford, Mass.). ATP, MgCl2, DTT, EDTA, MOPS and CHAPS were purchased from Sigma-Aldrich (St. Louis, Mo.). Wheat Germ Agglutinin (WGA) YSi SPA Scintillation Beads was purchased from GE healthcare life sciences (Piscataway, N.J.).
The kinase reaction was conducted in polystyrene 384-well matrix white plate from Thermo Fisher Scientific in a final volume of 25 μL. Inhibitors were first diluted serially in DMSO and added to the plate wells before the addition of other reaction components. The final concentration of DMSO in the assay was 0.5%. The PI3K assays were carried out at room temperature in 20 mM MOPS, pH 6.7, 10 mM MgCl2, 5 mM DTT and CHAPS 0.03%. Reactions were initiated by the addition of ATP, the final reaction mixture consisted of 20 μM PIP2, 20 μM ATP, 0.2 μCi [γ-^33P] ATP, 4 nM PI3Kδ. Reactions were incubated for 210 min and terminated by the addition of 40 μL SPA beads suspended in quench buffer: 150 mM potassium phosphate pH 8.0, 20% glycerol. 25 mM EDTA, 400 μM ATP. The final concentration of SPA beads was 1.0 mg/mL. After the plate sealing, plates were shaken overnight at room temperature and centrifuged at 1800 rpm for 10 minutes, the radioactivity of the product was determined by scintillation counting on Topcount (Perkin-Elmer). IC50 determination was performed by fitting the curve of percent control activity versus the log of the inhibitor concentration using the GraphPad Prism 3.0 software.
In general terms: SPA uses beads or plates that emit light when radiolabelled molecules are held near them.
`Cc1cccc2nc(C(C)Nc3nc(N)nc4[nH]cnc34)c(-c3ccc(C#N)cc3)c(=O)n12` (centres unmarked) [Example 62, 4-(2-{1-[(2-Amino-9H-purin-6-yl)amino]ethyl}-6-methyl-4-oxo-4H-pyrido[1,2-a]pyrimidin-3-yl)benzonitrile trifluoroacetic acid salt]: the IC50 was 100 to 500 nM. In the case of `Cc1ccccc1-c1c(C(C)Nc2ncnc3[nH]cnc23)nc2cccc(C)n2c1=O` (centres unmarked) [Example 63, 6-Methyl-3-(2-methylphenyl)-2-[1-(9H-purin-6-ylamino)ethyl]-4H-pyrido[1,2-a]pyrimidin-4-one trifluoroacetic acid salt] it was 100 to 500 nM; in that of `Cc1ccc(-c2c(C(C)Nc3ncnc4[nH]cnc34)nc3cccc(C)n3c2=O)cc1` (centres unmarked) [Example 64, 6-Methyl-3-(4-methylphenyl)-2-[1-(9H-purin-6-ylamino)ethyl]-4H-pyrido[1,2-a]pyrimidin-4-one trifluoroacetic acid salt], less than 50 nM.

As to `COc1cccc(-c2c(C(C)Nc3ncnc4[nH]cnc34)nc3cccc(C)n3c2=O)c1` (centres unmarked) [Example 65, 3-(3-Methoxyphenyl)-6-methyl-2-[1-(9H-purin-6-ylamino)ethyl]-4H-pyrido[1,2-a]pyrimidin-4-one trifluoroacetic acid salt], the IC50 was less than 50 nM.

As for `Cc1cccc2nc(C(C)Nc3ncnc4[nH]cnc34)c(-c3cccc(F)c3F)c(=O)n12` (centres unmarked) [Example 66, 3-(2,3-Difluorophenyl)-6-methyl-2-[1-(9H-purin-6-ylamino)ethyl]-4H-pyrido[1,2-a]pyrimidin-4-one trifluoroacetic acid salt], the IC50 was less than 50 nM.

Molecule `Cc1cccc2nc(C(C)Nc3ncnc4[nH]cnc34)c(-c3cc(F)ccc3F)c(=O)n12` (centres unmarked) [Example 67, 3-(2,5-Difluorophenyl)-6-methyl-2-[1-(9H-purin-6-ylamino)ethyl]-4H-pyrido[1,2-a]pyrimidin-4-one trifluoroacetic acid salt] registered an IC50 of less than 50 nM. For `Cc1cccc2nc(C(C)Nc3ncnc4[nH]cnc34)c(-c3ccc(F)c(F)c3)c(=O)n12` (centres unmarked) [Example 68, 3-(3,4-Difluorophenyl)-6-methyl-2-[1-(9H-purin-6-ylamino)ethyl]-4H-pyrido[1,2-a]pyrimidin-4-one trifluoroacetic acid salt] the value was 100 to 500 nM. For `Cc1cccc2nc(C(C)Nc3ncnc4[nH]cnc34)c(-c3cc(F)cc(F)c3)c(=O)n12` (centres unmarked) [Example 69, 3-(3,5-Difluorophenyl)-6-methyl-2-[1-(9H-purin-6-ylamino)ethyl]-4H-pyrido[1,2-a]pyrimidin-4-one trifluoroacetic acid salt], the IC50 was 100 to 500 nM. `CCc1cccc2nc(C(C)Nc3ncnc4[nH]cnc34)c(-c3cc(F)cc(F)c3)c(=O)n12` (centres unmarked) [Example 76, 3-(3,5-Difluorophenyl)-6-ethyl-2-[1-(9H-purin-6-ylamino)ethyl]-4H-pyrido[1,2-a]pyrimidin-4-one trifluoroacetic acid salt] showed an IC50 of 100 to 500 nM. In the case of `CCc1cccc2nc(C(C)Nc3nc(N)nc4[nH]cnc34)c(-c3cc(F)cc(F)c3)c(=O)n12` (centres unmarked) [Example 77, 2-{1-[(2-Amino-9#-purin-6-yl)amino]ethyl}-3-(3,5-difluorophenyl)-6-ethyl-4H-pyrido[1,2-a]pyrimidin-4-one trifluoroacetic acid salt] it was 50 to 100 nM; in that of `CCc1cccc2nc(C(C)Nc3ncnc4[nH]cnc34)c(-c3ccc(F)cc3)c(=O)n12` (centres unmarked) [Example 78, 6-Ethyl-3-(4-fluorophenyl)-2-[1-(9H-purin-6-ylamino)ethyl]-4H-pyrido[1,2-a]pyrimidin-4-one trifluoroacetic acid salt], less than 50 nM; in that of `CC(Nc1ncnc2[nH]cnc12)c1nc2ccccn2c(=O)c1-c1cc(F)cc(F)c1` (centres unmarked) [Example 79, 3-(3,5-Difluorophenyl)-2-[1-(9H-purin-6-ylamino)ethyl]-4H-pyrido[1,2-a]pyrimidin-4-one trifluoroacetic acid salt], more than 500 nM. For `CC(Nc1nc(N)nc2[nH]cnc12)c1nc2ccccn2c(=O)c1-c1cc(F)cc(F)c1` (centres unmarked) [Example 80, 2-{1-[(2-Amino-9H-purin-6-yl)amino]ethyl}-3-(3,5-difluorophenyl)-4H-pyrido[1,2-a]pyrimidin-4-one trifluoroacetic acid salt] the value was 100 to 500 nM. In the case of `Cc1cc(-c2c(C(C)Nc3ncnc4[nH]cnc34)nc3cccc(C)n3c2=O)cnc1Cl` (centres unmarked) [Example 81, 3-(6-Chloro-5-methylpyridin-3-yl)-6-methyl-2-[1-(9H-purin-6-ylamino)ethyl]-4H-pyrido[1,2-a]pyrimidin-4-one trifluoroacetic acid salt] it was more than 500 nM; in that of `Cc1cc(-c2c(C(C)Nc3nc(N)nc4[nH]cnc34)nc3cccc(C)n3c2=O)cnc1Cl` (centres unmarked) [Example 82, 2-{1-[(2-Amino-9H-purin-6-yl)amino]ethyl}-3-(6-chloro-5-methylpyridin-3-yl)-6-methyl-4H-pyrido[1,2-a]pyrimidin-4-one trifluoroacetic acid salt], more than 500 nM. `Cc1cccc2nc(C(C)Nc3ncnc4[nH]cnc34)c(-c3cccc(C#N)c3)c(=O)n12` (centres unmarked) [Example 83, 3-{6-Methyl-4-oxo-2-[1-(9H-purin-6-ylamino)ethyl]-4H-pyrido[1,2-a]pyrimidin-3-yl}benzonitrile trifluoroacetic acid salt] displayed an IC50 of 100 to 500 nM. For `Cc1cccc2nc(C(C)Nc3nc(N)nc4[nH]cnc34)c(-c3cccc(C#N)c3)c(=O)n12` (centres unmarked) [Example 84, 3-(2-{1-[(2-Amino-9H-purin-6-yl)amino]ethyl}-6-methyl-4-oxo-4H-pyrido[1,2-a]pyrimidin-3-yl)benzonitrile trifluoroacetic acid salt] the value was 50 to 100 nM.
